In paper PMC10895678 (Journal of Medicinal Chemistry, 2024):
≈ marks a conversion by molar mass, not a printed value. Where “and” joins values, the source holds several entries; their conditions need not be identical. Equal entries are not always repeated. Where two headings read alike, the source gives them in different places.

Experiments:
M. bovis BCG = assay: microbe, parasite or virus in culture; assay type: cell-based; conditions: Mycobacterium tuberculosis variant bovis BCG, read-out: BCG MBC
C. glutamicum = assay: MIC, resazurin assay, C. glutamicum wild type; assay type: cell-based, Corynebacterium glutamicum
[1] = Kinetic solubility (turbidimetry); assay type: physicochemical; conditions: PBS pH 7.4, 1% DMSO, 25 °C
[2] = Mouse PK, combined (cassette) dosing of BGAz-001–005; assay type: in vivo, KM mice; set-up: AUMC(0-t) / VRT(0-t) / λz: unit not given here; conditions: for AUC(0-t): read-out: AUC(0-t); for MRT last: read-out: MRT(0-t); for MRT inf: read-out: MRT(0-∞); for Vd/F: read-out: Vz/F
From the text: Methods for combined single dosing (BGAz001–005) and dosing of single compounds multiple times (BGAz004 and BGAz005) are described in detail in the Supporting Information (PK Data).
Report on PK Results of Combined Dosing with BGAz-001–005
1 Materials and instrument combined dosing
An MS2 Turnover type oscillator was purchased from IKA Work’s Guangzhou (China), and a 5415R ChromatographicanalyseswereconductedusinganAgilent1290InfinityIIhighperformanceliquidchromatography andAgilentTechnologies6470TripleQuadLC/MS.Propranolol(≥90%inpurity,internalstandard,IS)waspurchased fromtheSigmaChemicalCo.(China).Formicacid(HPLCgrade)andmethanol(HPLCgrade)werepurchasedfrom DIKMACo.(China).Allchemicalsandsolventswereanalyticalgrade.WaterwaspurifiedusingaMillipore(AK,USA) laboratoryultra-purewatersystem(0.2μmfilter).
KMmice,weighing25–35g(BeijingVitalRiverLaboratoryAnimalTechnologyCo.,Ltd.,China)wereutilisedforthe studies.The protocols were approved by the Animal Care and Use Committee, GIBH. Animals were maintained on standard animal chow and waterad libitum, in a climate-controlled room (23±1 °C 30–70% relative humidity, a minimumof tenexchangesof roomairperhouranda12hlight/darkcycle)foroneweekpriortoexperiments.
3 Pharmacokinetic studies
Compounds BGAz-001 ，BGAz-002 ，BGAz-003 ，BGAz-004 and BGAz-005 were dissolved mixed in a solution containing DMSO (2%),ethanol (4%), Cremophor EL (4%) and ddH2O (90%); Pharmacokinetic propertiesof KM (male) were determined following IV, PO and IP administration. Animals were randomly distributed into three experimentalgroups(n=4).ThePOgroupwasgivenmixedsolutionwith5mg/kgbygastricgavage.TheIVgroup was dosed with mixed solution 1mg/kg byinjection into the tail vein. The IP group was dosed with mixed solution 1mg/kg by intraperitoneal injection. After single administration, whole blood samples (100 μL) were obtained from the orbital venousplexus atthe followingtime pointsafter dosing:5, 15,30 minand 1,3, 5,8, 24hour (PO and IP groups) and at the following time points after dosing 2, 10, 30min and 1, 3, 5, 8,24 hour (IV group). Wholeblood samples were collected in heparinised tubes. The plasma fraction was immediately separated by centrifugation. The micewerehumanelyeuthanasiabycarbondioxide24hoursafterexperimentwithoutpain.
4 Plasma sample and brain sample analysis
4.1 Standard curve sample preparation
ThecompoundsweredissolvedinDMSO(2mg/mL)anddilutedwithtoseriesconcentration(methanol:H 2O,1:1,10 μL) and blank plasma (50 μL) were added to 1.5 mL tubes and vortexed for 3 min, then acetonitrile-containing internalstandard(150μL)wasaddedandvortexedforafurther5min,andsubsequentlyspuninacentrifugeat13000 […]
4.2 Plasma and preparation
Plasmasampleswerepreparedusingaproteinprecipitationmethod.Solution(10μL,methanolH 2O,1:1)andplasma samples(50μL)wereaddedto1.5mLtubesandvortexfor3min,thenacetonitrile-containinginternalstandard(150 μL)wasaddedandvortexfor5min,andsubsequentlyspuninacentrifugeat13000× gfor40minat4°C.
Aftercentrifugation,supernatant(100μL)wastransferto96wellplatesandanalysedbyLC-MS/MSusinganAgilent 1290InfinityIIHPLCandanAgilentTechnologies6470TripleQuadLC/MS.

M. smegmatis = assay: MIC determination, resazurin end point assay, M. smegmatis; assay type: cell-based, Mycobacterium smegmatis; conditions: Mycolicibacterium smegmatis
[3] = IP 1 mg/kg, cassette, mean of animals
[4] = IV 1 mg/kg, cassette, mean of animals
[5] = PO 5 mg/kg, cassette, mean of animals
[6] = male, KM, mouse, plasma, IP 1 mg/kg, cassette
[7] = male, KM, mouse, plasma, IP 1 mg/kg, cassette, mean of animals
[8] = male, KM, mouse, plasma, IV 1 mg/kg, cassette
[9] = male, KM, mouse, plasma, IV 1 mg/kg, cassette, mean of animals
[10] = male, KM, mouse, plasma, PO 5 mg/kg, cassette
[11] = male, KM, mouse, plasma, PO 5 mg/kg, cassette, mean of animals

In the case of Brc1cc(Br)cc(C2CC(CN3CCCC3)N2Cc2ccccc2Br)c1 (centres unmarked) [BGAz-004], the MBC (M. bovis BCG) is reported as 12 to 25 µM (≈ 6.52 to 13.6 µg/mL), the C. glutamicum MIC (C. glutamicum; modified Gompertz function) is reported as 20 µM and the MIC50 C. glutamicum (C. glutamicum; supplementary MIC data file) is reported as 12 µM (≈ 6.52 µg/mL). The MIC99 C. glutamicum (C. glutamicum; supplementary MIC data file) was 12 µM (≈ 6.52 µg/mL), the solubility kinetic at 5 min [1] was 9 µM (≈ 4.89 µg/mL) and the “AUMC(0-t)” value [2, 3] was 3591.68 **μg. For the same molecule, the “AUMC(0-∞)” value [2, 3] was 7580.816 **μg, the CLz/F [2, 3] was 1.737 L/kg and the C_last [2, 3] was 7.173 µg. For the same molecule, the “R_AUC(t/∞)” value [2, 3] was 82.475%, the “VRT(0-t)” value [2, 3] was 44.576 ^2 and the “VRT(0-∞)” value [2, 3] was 210.175 ^2. For the same molecule, the λz [2, 3] was 0.071 1/, the “AUC(0-∞)” value ([2]; IP 1 mg/kg, cassette, summary table) was 581.359 µg·h and the “AUMC(0-t)” value [2, 4] was 5267.479 **μg. For the same molecule, the “AUMC(0-∞)” value [2, 4] was 9388.553 **μg, the CLz/F [2, 4] was 1.659 L/kg and the C_last [2, 4] was 6.542 µg. For the same molecule, the “R_AUC(t/∞)” value [2, 4] was 90.625%, the “VRT(0-t)” value [2, 4] was 43.967 ^2 and the “VRT(0-∞)” value [2, 4] was 134.645 ^2. For the same molecule, the Vz/F [2, 4] was 17.622 L/kg, the λz [2, 4] was 0.091 1/ and the “AUC(0-∞)” value ([2]; IV 1 mg/kg, cassette, summary table) was 789.43 µg·h. For the same molecule, the BA ([2]; PO 5 mg/kg vs IV 1 mg/kg, cassette) was 35.64%, the “AUMC(0-t)” value [2, 5] was 7719.114 **μg and the “AUMC(0-∞)” value [2, 5] was 23536.035 **μg. For the same molecule, the CLz/F [2, 5] was 3.927 L/kg, the C_last [2, 5] was 32.311 µg and the “R_AUC(t/∞)” value [2, 5] was 62.325%. The “VRT(0-t)” value [2, 5] was 36.246 ^2, the “VRT(0-∞)” value [2, 5] was 301.909 ^2 and the λz [2, 5] was 0.069 1/. The “AUC(0-∞)” value ([2]; PO 5 mg/kg, cassette, summary table) was 1406.796 µg·h, the AUC(0-inf) ([2]; male, KM, mouse, plasma, ip, 1 mg/kg, IP 1 mg/kg, cassette, mean of animals, read-out: AUC(0-∞)) was 581 ng·h/mL and the Cmax ([2]; male, KM, mouse, plasma, ip, 1 mg/kg, IP 1 mg/kg, cassette, mean of animals, read-out: Cmax) was 61 ng/mL. The Tmax ([2]; male, KM, mouse, plasma, ip, 1 mg/kg, IP 1 mg/kg, cassette, mean of animals, read-out: Tmax) was 0.271 h, the Cmax ([2]; male, KM, mouse, plasma, ip, 1 mg/kg, IP 1 mg/kg, cassette, summary table, read-out: Cmax) was 61 ng/mL and the half-life ([2]; male, KM, mouse, plasma, ip, 1 mg/kg, IP 1 mg/kg, cassette, summary table, read-out: T1/2 (converted)) was 9.82 h. It also gave a Tmax ([2]; male, KM, mouse, plasma, ip, 1 mg/kg, IP 1 mg/kg, cassette, summary table, read-out: Tmax) of 0.271 h, an AUC(0-inf) ([2]; male, KM, mouse, plasma, iv, 1 mg/kg, IV 1 mg/kg, cassette, mean of animals, read-out: AUC(0-∞)) of 789 ng·h/mL and a Cmax ([2]; male, KM, mouse, plasma, iv, 1 mg/kg, IV 1 mg/kg, cassette, mean of animals, read-out: Cmax) of 278 ng/mL. The Tmax ([2]; male, KM, mouse, plasma, iv, 1 mg/kg, IV 1 mg/kg, cassette, mean of animals, read-out: Tmax) was 0.033 h, the Cmax ([2]; male, KM, mouse, plasma, iv, 1 mg/kg, IV 1 mg/kg, cassette, summary table, read-out: Cmax) was 278 ng/mL and the half-life ([2]; male, KM, mouse, plasma, iv, 1 mg/kg, IV 1 mg/kg, cassette, summary table, read-out: T1/2 (converted)) was 8.29 h. The Tmax ([2]; male, KM, mouse, plasma, iv, 1 mg/kg, IV 1 mg/kg, cassette, summary table, read-out: Tmax) was 0.033 h, the AUC(0-inf) ([2]; male, KM, mouse, plasma, po, 5 mg/kg, 5 mg/kg PO, cassette dosing, read-out: AUC0-inf) was 1410 ng·h/mL and the Cmax ([2]; male, KM, mouse, plasma, po, 5 mg/kg, 5 mg/kg PO, cassette dosing, read-out: Cmax (Mouse, P.O.)) was 87.6 ng/mL. For the same molecule, the half-life ([2]; male, KM, mouse, plasma, po, 5 mg/kg, 5 mg/kg PO, cassette dosing, read-out: T1/2 (Mouse, P.O.) (converted)) was 11.4 h, the Tmax ([2]; male, KM, mouse, plasma, po, 5 mg/kg, 5 mg/kg PO, cassette dosing, read-out: Tmax (Mouse, P.O.)) was 0.87 h and the AUC(0-inf) ([2]; male, KM, mouse, plasma, po, 5 mg/kg, PO 5 mg/kg, cassette, mean of animals, read-out: AUC(0-∞)) was 1410 ng·h/mL. The Cmax ([2]; male, KM, mouse, plasma, po, 5 mg/kg, PO 5 mg/kg, cassette, mean of animals, read-out: Cmax) was 87.6 ng/mL, the Tmax ([2]; male, KM, mouse, plasma, po, 5 mg/kg, PO 5 mg/kg, cassette, mean of animals, read-out: Tmax) was 0.875 h and the Cmax ([2]; male, KM, mouse, plasma, po, 5 mg/kg, PO 5 mg/kg, cassette, summary table, read-out: Cmax) was 87.6 ng/mL. For the same molecule, the half-life ([2]; male, KM, mouse, plasma, po, 5 mg/kg, PO 5 mg/kg, cassette, summary table, read-out: T1/2 (converted)) was 11.4 h, the Tmax ([2]; male, KM, mouse, plasma, po, 5 mg/kg, PO 5 mg/kg, cassette, summary table, read-out: Tmax) was 0.875 h and the concentration at 0.083 h [2, 6] was 55.3 ng/mL and 100 nM. For the same molecule, the concentration at 0.25 h [2, 6] was 110 nM and 60.1 ng/mL, the concentration at 0.5 h [2, 6] was 90 nM and 50.3 ng/mL and the concentration at 1 h [2, 6] was 70 nM and 39.4 ng/mL. The concentration at 3 h [2, 6] was 60 nM and 31 ng/mL, the concentration at 5 h [2, 6] was 50 nM and 24.4 ng/mL and the concentration at 8 h [2, 6] was 40 nM and 21.8 ng/mL. For the same molecule, the concentration at 24 h [2, 6] was 10 nM and 7.15 ng/mL, the AUC(0-t) [2, 7] was 478 ng·h/mL and the MRT last [2, 7] was 7.49 h. For the same molecule, the MRT inf [2, 7] was 12.9 h, the Vd/F [2, 7] was 24.4 L/kg and the concentration at 0.033 h ([2]; male, KM, mouse, plasma, IV 1 mg/kg, cassette, 0.033 h) was 278 ng/mL and 520 nM. The concentration at 0.167 h ([2]; male, KM, mouse, plasma, IV 1 mg/kg, cassette, 0.167 h) was 270 nM and 148 ng/mL, the concentration at 0.5 h [2, 8] was 160 nM and 84.6 ng/mL and the concentration at 1 h [2, 8] was 170 nM and 89.6 ng/mL. The concentration at 3 h [2, 8] was 80 nM and 40.5 ng/mL, the concentration at 5 h [2, 8] was 50 nM and 28.3 ng/mL and the concentration at 8 h [2, 8] was 40 nM and 21.6 ng/mL. For the same molecule, the concentration at 24 h [2, 8] was 30 nM and 15.1 ng/mL, the C0 [2, 9] was 327 ng/mL and the AUC(0-t) [2, 9] was 688 ng·h/mL. The MRT last [2, 9] was 6.4 h, the MRT inf [2, 9] was 9.25 h and the concentration at 0.083 h [2, 10] was 17.3 ng/mL and 30 nM. For the same molecule, the concentration at 0.25 h [2, 10] was 80 nM and 42.6 ng/mL, the concentration at 0.5 h [2, 10] was 120 nM and 65.1 ng/mL and the concentration at 1 h [2, 10] was 160 nM and 84.4 ng/mL. For the same molecule, the concentration at 3 h [2, 10] was 130 nM and 68.4 ng/mL, the concentration at 5 h [2, 10] was 120 nM and 63.3 ng/mL and the concentration at 8 h [2, 10] was 110 nM and 60.5 ng/mL. For the same molecule, the concentration at 24 h [2, 10] was 40 nM and 22.2 ng/mL, the AUC(0-t) [2, 11] was 945 ng·h/mL and the MRT last [2, 11] was 6.82 h. For the same molecule, the MRT inf [2, 11] was 15.7 h, the Vd/F [2, 11] was 58.1 L/kg and the MIC99 (M. smegmatis; resazurin end point assay, modified Gompertz function, three biological replicates, read-out: M. smeg. MIC99) was 14 µM (≈ 7.6 µg/mL). For the same molecule, the MIC50 (M. smegmatis; supplementary MIC data file, read-out: MIC50 smegmatis) was 6 µM (≈ 3.26 µg/mL) and the MIC99 (M. smegmatis; supplementary MIC data file, read-out: MIC99 smegmatis) was 14 µM (≈ 7.6 µg/mL).
